According to patent US20050261130A1, “Novel surfactants and formulations” (Monsanto Technology LLC, priority 2000, published 2005):

Columns and labels:
Type in all cases: physicochemical
[1] = Birefringence test for anisotropic aggregates on wax-coated slide; set-up: key: Y is yes; N is no; conditions: surfactant in IPA glyphosate formulation
Experimental: To determine whether a herbicidal formulation comprising glyphosate or a salt or ester thereof and a surfactant forms anisotropic aggregates on the foliage of a plant comprising the surfactant, the following birefringence testing procedure may be utilized.
First, a wax-coated slide is prepared. A preferred wax for preparing the slide is a blend of carnauba wax and beeswax in a weight/weight ratio of approximately 10:1, respectively. A clear wax mixture is prepared consisting of about 5% carnauba wax and about 0.5% beeswax in isopropanol, and is maintained at a temperature of approximately 82° C. The end of a glass 2.4 cm×7.2 cm microscope slide is immersed perpendicularly in the wax mixture to a depth of approximately one-third of the length of the slide. After about 10 to 15 seconds, the slide is very slowly and steadily withdrawn from the wax mixture and allowed to cool, leaving a wax layer deposited on both faces of the slide.
Visual examination of the slide can give a preliminary indication of the thickness and uniformity of the wax coating. If imperfections are evident the slide is rejected. […] Further evaluation of the acceptability of the wax-coated slide for the test is done by examining the slide under a microscope. The slide is selected for use in the test if, on microscopic examination using a 4.9× objective, the wax coating is uniformly thick and there is uniform density of wax particles across the slide.
The next stage in the procedure is to conduct the test.
The following instrumentation, or equivalent, items are required or useful for the test procedure: • Nikon SMZ-10A stereoscopic microscope equipped for polarized light observation, photomicrography, and video observation and recording. • 3CCD MTI camera. • Diagnostic Instruments 150 IL-PS power supply. • Sony Trinitron color video monitor, model PVM-1353MD. • Mitsubishi time-lapse video cassette recorder, model HS-S5600. • Hewlett Packard Pavillion 7270 computer, with Windows 95 and Image-Pro • Plus version 2.0 electronic imaging program installed. • Hewlett Packard Deskjet 870Cse printer.
For testing, a wax-coated slide, prepared and selected as described above, is positioned on the microscope stage, with the system set to provide transmitted light, both straight and polarized. A 1 microliter drop of the sample to be tested is applied to the wax surface using a thoroughly cleaned 1 microliter Hamilton syringe. This and subsequent operations are followed through the microscope at 4.9× objective. Duplicate or triplicate tests are done for each composition. Numerous tests can be conducted simultaneously on a single slide. Progression of change in the microscopic appearance of the sample is observed through the microscope and recorded at designated time intervals. Useful intervals are 1 minute, 10 minutes, 2 hours and greater than 24 hours after application of the drop to the wax surface. Observations can also be made at intermediate times to capture possible significant transitions occurring at such times.
The temperature of the wax layer tends to increase with prolonged exposure to the microscope light. […] However, in some cases temperature does affect the outcome of the test and in such cases it is preferred to illuminate the sample only for the short periods necessary to make observations, so that the temperature of the wax layer remains close to ambient temperature.
At dark field (polarized light) the wax layer is observed for birefringence, and at light field the character of the drop surface is observed, at each time interval. The following records are preferably made: • birefringence (y/n); • time of initial appearance of birefringence; • character of the birefringence; • appearance of drop surface as composition “dries”; • degree of spread of the drop; • effects of temperature (warming of the slide) if any; • other noticeable changes.

[2] = Specific gravity (Mettler DA-300 Density/Specific Gravity Meter); conditions: 20/15.6° C.; 30% a.e. by weight glyphosate monobasic salt solutions
Experimental: Specific gravities are measured using a Mettler DA-300 Density/Specific Gravity Meter.

[3] = Compatibility of surfactant with diammonium glyphosate concentrate (no phase separation, 50° C., 1 week); conditions: 50° C. oven 1 week; for Compatible w/31% a.e. diammonium glyphosate at 10 wt % loading: 31 wt. % a.e. diammonium glyphosate/10 wt. % surfactant; for Compatible w/37% a.e. diammonium glyphosate at 12 wt % loading: 37 wt. % a.e. diammonium glyphosate/12 wt. % surfactant
Experimental: For the 31 wt. % a.e. NH4^+glyphosate/10 wt. % surfactant compositions: • 1.48 g of 41.9 wt % a.e. aqueous glyphosate diammonium (1.7 eq) salt was weighed into a vial. To the same vial was added 0.2 g of surfactant and 0.32 g deionized water. The remainder of the protocol is the same as that described for the 31 wt % potassium glyphosate samples. The surfactants identified in Table 4 that were compatible at the 31% a.e. ammonium/10 wt. % surfactant loading are indicated in Table 5 below.
For the 37 wt. % a.e. NH4^+glyphosate/12 wt. % surfactant compositions: • 1.76 g of 41.9 wt % a.e. aqueous glyphosate diammonium (1.7 eq) salt was weighed into a vial. To the same vial was added […]. The remainder of the protocol is the same as that described for the 31 wt % potassium glyphosate samples. The surfactants identified in Table 4 that were compatible at the 37% a.e. ammonium/12 wt. % surfactant loading are indicated in Table 5 below.

[4] = Compatibility of surfactant with potassium glyphosate concentrate (no phase separation, 50° C., 1 week); conditions: 50° C. oven 1 week; for Compatible w/37% a.e. K + glyphosate at 12 wt % loading: 37 wt. % a.e. potassium glyphosate/12 wt. % surfactant; for Compatible w/45% a.e. K + glyphosate at 15% wt loading: 45 wt. % a.e. potassium glyphosate/15 wt. % surfactant
Experimental: For the 31 wt. % a.e. potassium glyphosate/10 wt. % surfactant compositions: 1.550 g of 40 wt. % a.e. aqueous glyphosate potassium salt solution was weighed into a vial. To the same vial, 0.200 g of surfactant was added. Enough deionized water was then added to the contents to bring the total weight to 2.000g. The mixture was stirred for 2 hours at room temperature and checked to see if a solution had been formed. If a solution was present, the test vial was allowed to stand at room temperature overnight. If a solution was still present, the test vial was placed in a 50° C. oven for 1 week. If no phase separation had occurred in one week, the surfactant being tested was considered “compatible.” All of the surfactants identified in Table 4 were compatible at the 31% a.e. potassium/10 wt. % surfactant loading.
For the 37 wt. % a.e. potassium glyphosate/12 wt. % surfactant compositions: 41.1 g of 45 wt. % a.e. aqueous glyphosate potassium salt was weighed to a container. To the same container was added 6.0 g of surfactant and 2.9 g deionized water for a total weight of 50.0 g. The remainder of the protocol is the same as that described for the 31 wt. % samples. The surfactants identified in Table 4 that were compatible at the 37% a.e. potassium/12 wt. % surfactant loading are indicated in Table 5 below.
For the 40 wt. % a.e. potassium glyphosate/10 wt. % surfactant compositions: 1.79 g of 45 wt. % a.e. aqueous glyphosate potassium salt was weighed into a vial. To the same vial was added 0.2 g of surfactant. The remainder of the protocol is the same as that described for the 31 wt. % samples. The surfactants identified in Table 4 that were compatible at the 40% a.e. potassium/10 wt. % surfactant loading are indicated in Table 5 below.
For the 45 wt. % a.e. potassium glyphosate/15 wt. % surfactant compositions: 1.100 g of solid mono potassium glyphosate was weighed into a vial. To the same vial was added 0.300 g surfactant. Enough deionized water was added to the vial to bring the final weight to 2.000 g. The remainder of the protocol is the same as that described for the 31 wt. % samples. The surfactants identified in Table 4 that were compatible at the 45% a.e. potassium/[…] are indicated in Table 5 below.

Compound | AA (anisotropic aggregate) [1] | Compatible w/31% a.e. diammonium glyphosate at 10 wt % loading [3] | Compatible w/37% a.e. K + glyphosate at 12 wt % loading [4] | further results
CCCCCCCCCCCCCCCCN(C)CCN(C)CCCCCCCCCCCCCCCC | Y | – | – | –
CCN.O=C(O)CNCP(=O)(O)O | – | – | – | Specific Gravity [2]: 1.1599
CCCN.O=C(O)CNCP(=O)(O)O | – | – | – | Specific Gravity [2]: 1.1429
CCCCC(CC)COP(=O)(O)O (centres unmarked) [2-ethylhexyl phosphate] | N | – | – | –
CCCCCCCCNC(CO)(CO)CO [EEE] | – | Yes | Yes | Compatible w/37% a.e. diammonium glyphosate at 12 wt % loading [3]: Yes; Compatible w/45% a.e. K + glyphosate at 15% wt loading [4]: No
CCCCCCCCCCCCNC(CO)(CO)CO [FFF] | – | No | – | Compatible w/37% a.e. diammonium glyphosate at 12 wt % loading [3]: No
CCCCCCCCCCN(C)CCN(C)CCCCCCCCCC [Gemini 10-2-10] | Y | – | – | –
CCCCCCCCCCN(C)CCCN(C)CCCCCCCCCC [Gemini 10-3-10] | Y | – | – | –
CCCCCCCCCCN(C)CCCCN(C)CCCCCCCCCC [Gemini 10-4-10] | Y | – | – | –
CCCCCCCCCCCCOCCOCCOCCOCCN(C)C [HHH] | – | No | – | –
CCCCCCCCCCCCCCCCOCCOCCOCCOCCOCCOCCOCCOCCOCCOCCNCCCN [KKK] | – | – | Probably | Compatible w/45% a.e. K + glyphosate at 15% wt loading [4]: Yes, but minor
CCCCCCCCCCCCCCCCOCCOCCOCCOCCOCCOCCOCCOCCOCCOCCN(C)CCN(C)C [MMM] | – | Yes | Yes | –
CCCCCCCCCCCCCCCCOCCOCCOCCOCCOCCOCCOCCOCCOCCOCCN(C)CC(O)C(O)C(O)C(O)CO (centres unmarked) [OOO] | – | No | Probably | Compatible w/37% a.e. diammonium glyphosate at 12 wt % loading [3]: Yes
CCCCCCCCCCCCCCCCOCCOCCOCCOCCOCCOCCOCCOCCOCCOCCOCCOCCOCCOCCOCCOCCOCCOCCOCCOCCN(C)CC(O)C(O)C(O)C(O)CO (centres unmarked) [PPP] | – | No | No | Compatible w/37% a.e. diammonium glyphosate at 12 wt % loading [3]: No
CCCCCCCCCCCCCCCCOCCOCCOCCOCCOCCOCCOCCOCCOCCOCCOCCOCCOCCOCCOCCOCCOCCOCCOCCOCCN(C)CC(O)CO (centres unmarked) [QQQ] | – | No | No | Compatible w/37% a.e. diammonium glyphosate at 12 wt % loading [3]: No
CCCCCCCCCCCCN(C)CC(O)C(O)C(O)C(O)CO (centres unmarked) [RR] | – | Yes | Yes | Compatible w/37% a.e. diammonium glyphosate at 12 wt % loading [3]: Yes; Compatible w/45% a.e. K + glyphosate at 15% wt loading [4]: Yes
CCCCCCCCCCCCCCCCCCN(C)CCOCCOCCOCCOCCOCCOCCOC [Surfactant C, α-methyl-ω-(N-methyloctadecylamino)poly(oxy-1,2-ethanediyl)] | – | No | – | –

Compound | AA (anisotropic aggregate) [1] | Compatible w/31% a.e. diammonium glyphosate at 10 wt % loading [3] | Compatible w/37% a.e. K + glyphosate at 12 wt % loading [4] | further results
CCCCCCCCN(CCCN(CCCCCCCC)CC(O)C(O)C(O)C(O)CO)CC(O)C(O)C(O)C(O)CO (centres unmarked) [Surfactant CCC, 1,8 hexylaminoglucitol octane] | – | – | Yes | Compatible w/45% a.e. K + glyphosate at 15% wt loading [4]: Yes
CN(CCCCCCCCCCCCN(C)CC(O)C(O)C(O)C(O)CO)CC(O)C(O)C(O)C(O)CO (centres unmarked) [Surfactant ZZ, 1,12 methylaminoglucitoldodecane] | – | – | Yes | Compatible w/45% a.e. K + glyphosate at 15% wt loading [4]: Yes
CCCCCCCCCCCC[N+](C)(C)C [VVV] | – | Yes | – | Compatible w/37% a.e. diammonium glyphosate at 12 wt % loading [3]: No
CCCCCCCCCCCC[N+](C)(C)CC(O)C(O)C(O)C(O)CO (centres unmarked) [XX] | – | Yes | No | Compatible w/37% a.e. diammonium glyphosate at 12 wt % loading [3]: No
CCCCCCCCCCCCCCCCCC[N+](C)(C)CC(O)C(O)C(O)C(O)CO (centres unmarked) [YY] | – | Yes | No | Compatible w/37% a.e. diammonium glyphosate at 12 wt % loading [3]: No
CCCCCCCC(=O)O [caprylic acid] | N | – | – | –
CCCCCCCCCCN(C)C [drawing 146 w=10] | N | – | – | –
CC(C)N.O=C(O)CNCP(=O)(O)O [isopropylammonium (IPA)] | – | – | – | Specific Gravity [2]: 1.1554
CN [methylammonium] | – | – | – | Specific Gravity [2]: 1.1667
NCCO.O=C(O)CNCP(=O)(O)O [monoethanolammonium (MEA)] | – | – | – | Specific Gravity [2]: 1.2357
CCCCCCCC/C=C\CCCCCCCC(=O)O [oleic acid] | Y | – | – | –
CCCCCCCCCCCCCCCC(=O)O [palmitic acid] | Y | – | – | –
CCCCCCCCCCCCOS(=O)(=O)[O-].[Na+] [sodium lauryl sulfate] | Y | – | – | –
CCCCCCCCCCCCCCCCCC(=O)O [stearic acid] | Y | – | – | –
C[S+](C)C.O=C(O)CNCP(=O)([O-])O [trimethylsulfonium (TMS)] | – | – | – | Specific Gravity [2]: 1.1904
ammonium | – | – | – | Specific Gravity [2]: 1.1814
laureth-3 phosphate | N | – | – | –
